Measurements reported in US9701681B2, “Fused ring heteroaryl compounds and their use as Trk inhibitors” (CMG Pharmaceutical Co., Ltd., priority 2014, dated 2017).

Legend:
TF-1 cells = assay: Cell proliferation assay (TF-1); conditions: 10 ng/ml human β-NGF, 72 hours exposure, read-out: IC50 (nM) Cell-based assay (TF-1)
Experimental: Doxorubicin was purchased from Sigma Aldrich (D1515). All compounds were diluted in DMSO (Sigma Aldrich, D2650). AlamarBlue® cell viability reagent was purchased from Thermo Scientific (88952). CellTiter 96® AQueous One Solution Cell proliferation assay was purchased from Promega. KM12-luc cells were obtained from JCRB (National Institute of Health Sciences, Tokyo, Japan). They were maintained in DMEM medium (GIB-11965-118) supplemented with 10% fetal bovine serum (Gibco, 16000-044) and MEM Non-Essential Amino Acids Solution (Thermo Scientific, 11140-050). TF-1 cells were obtained from ATCC. They were maintained in RPMI medium (GIB-A10491) supplemented with 10% fetal bovine serum (Gibco, 16000-044), GM-CSF (Thermo Scientific, 11140-050), and β-NGF (R&D systems). Trypsin/EDTA was purchased from Gibco (GIB-25300-054, 0.05%). 96-well plates were purchased from Corning Inc.
The proliferation assay was performed for Chemical Compounds 1-61 s in media supplemented with 10% FBS, using AlamarBlue® cell viability reagent or CellTiter 96® AQueous One Solution Cell proliferation assay kit. Cells were cultured in humidified 37° C. incubator with 5% CO2. To evaluate the antiproliferation activity of compounds, TF-1 cells were adjusted to GM-CSF free media (RPMI, 10% FBS, and 1% penicillin-streptomycin) for 16 hr and were seeded in 96-well plates at 30,000 cells/well with medium (RPMI, 10% FBS, 1% penicillin-streptomycin and 10 ng/ml human β-NGF). KM12-luc were seeded at 10,000 cells per well into 96-well plates. After overnight incubation, serial dilutions of compounds were added to triplicate wells, and cells were exposed for 72 hours. The final concentration of DMSO was adjusted to 0.5% in media. Quantitation of cell growth was assessed using two kinds of reagent. 20 ul of AlamarBlue® reagent in an amount equal to 10% of the culture volume was added to each well and were incubated in humidified 37° C. incubator with 5% CO2 for 2 hr. Otherwise, 20 ul of CellTiter 96® reagent was added to each well and were incubated in the same conditions as previously described. Data were plotted, and GI50 values were calculated using GraphPad software. Table 1 below includes the results of the assays.

KM12-luc cells = assay: Cell proliferation assay (KM12); conditions: 72 hours exposure, read-out: IC50 (nM) Cell-based assay (KM12)
In short: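 KM12-luc cells were seeded at 10,000/well. TF-1 cells were first held 16 hr without GM-CSF, then seeded at 30,000/well with 10 ng/ml human β-NGF. Cells were exposed in triplicate to serial dilutions for 72 h in 10% FBS with 0.5% DMSO at 37 °C, read by AlamarBlue or CellTiter 96 for 2 hr, and GI50 was fitted.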

TRK A, B & C kinase = biological target: T1, TRK A, B & C kinase; assay: TRK A, B & C kinase assay (ADP-Glo / HTRF KinEASE-TK); assay type: biochemical; conditions: ADP-Glo or HTRF KinEASE-TK kit, isoform not specified, read-out: IC50 (nM) Enzymatic assay
T1 construct: fused on or other part: Carna's Trk kinases are usually GST-tagged cytoplasmic domains
In short: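 ADP-Glo: TrkA/B/C (0.4/0.5/3 ng/ul) with poly(Glu,Tyr), 1 h at 30° C, luminescence readout. HTRF: TRKA/B/C (0.3/0.1/0.03 ng/ul) at ATP 14.7/4.77/25.6 uM with TK-substrate, compound 0–100 nM for 40 min at RT, then detection by 665/620 ratio. Both give IC50 by curve fit.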

| Compound | IC50 (TF-1 cells) [nM] | IC50 (KM12-luc cells) [nM] | IC50 (TRK A, B & C kinase) [nM] |
| --- | --- | --- | --- |
| COCCNC(=O)/C=C/c1cnn2ccc(N3CCCC3c3cc(F)ccc3F)nc12 (stereo not drawn) [Chemical Compound 46, (E)-3-(5-(2-(2,5-difluorophenyl)pyrrolidin-1-yl)pyrazolo[1,5-a]pyrimidin-3-yl)-N-(2-methoxyethyl)-acrylamide] | < 100 | < 100 | < 10 |
| O=C(/C=C/c1cnn2ccc(N3CCCC3c3cc(F)ccc3F)nc12)N1CC(O)C1 (stereo not drawn) [Chemical Compound 47, (E)-3-(5-(2-(2,5-difluorophenyl)pyrrolidin-1-yl)pyrazolo[1,5-a]pyrimidin-3-yl)-1-(3-hydroxyazetidin-1-yl)prop-2-en-1-one] | < 100 | < 100 | < 10 |
| O=C(/C=C/c1cnn2ccc(N3CCC[C@@H]3c3cc(F)ccc3F)nc12)NCCO [Chemical Compound 48, (R,E)-3-(5-(2-(2,5-difluorophenyl)pyrrolidin-1-yl)pyrazolo[1,5-a]pyrimidin-3-yl)-N-(2-hydroxyethyl)-acrylamide] | < 100 | < 100 | < 10 |
| O=C(/C=C/c1cnn2ccc(N3CCC[C@@H]3c3cc(F)ccc3F)nc12)N1CCOCC1 [Chemical Compound 49, (R,E)-3-(5-(2-(2,5-difluorophenyl)pyrrolidin-1-yl)pyrazolo[1,5-a]pyrimidin-3-yl)-1-morpholinoprop-2-en-1-one] | < 10 | < 100 | < 10 |
| O=C(/C=C/c1cnn2ccc(N3CCC[C@@H]3c3cc(F)ccc3F)nc12)N1CCNCC1 [Chemical Compound 50, (R,E)-3-(5-(2-(2,5-difluorophenyl)pyrrolidin-1-yl)pyrazolo[1,5-a]pyrimidin-3-yl)-1-(piperazin-1-yl)prop-2-en-1-one] | < 100 | < 10 | < 10 |
| O=C(C#Cc1cnn2ccc(N3CCCC3c3cc(F)ccc3F)nc12)N1CCOCC1 (stereo not drawn) [Chemical Compound 61, 3-(5-(2-(2,5-difluorophenyl)pyrrolidin-1-yl)pyrazolo[1,5-a]pyrimidin-3-yl)-1-morpholinoprop-2-yn-1-one] | < 100 | < 100 | < 10 |
